Reference: patent US11116760B2 (Gilead Sciences, Inc., priority 2018, dated 2021)
pEC50: −log10 of the molar value.

Target: α4β7 integrin (Homo sapiens (Human), UniProt P13612+P26010)
Assay: α4β7 Integrin Cell Capture Assay
Type: cell-based
[1] = Table 2, capture of α4β7 expressing RPM18866 cells on MadCAM-1 extracellular domain-coated plate
[2] = RPMI8866 cells captured on MadCAM-1 extracellular domain-coated plate
[3] = Table 1, capture of α4β7 expressing RPM18866 cells on MadCAM-1 extracellular domain-coated plate

Sequence of α4β7 integrin (P13612 34-1032): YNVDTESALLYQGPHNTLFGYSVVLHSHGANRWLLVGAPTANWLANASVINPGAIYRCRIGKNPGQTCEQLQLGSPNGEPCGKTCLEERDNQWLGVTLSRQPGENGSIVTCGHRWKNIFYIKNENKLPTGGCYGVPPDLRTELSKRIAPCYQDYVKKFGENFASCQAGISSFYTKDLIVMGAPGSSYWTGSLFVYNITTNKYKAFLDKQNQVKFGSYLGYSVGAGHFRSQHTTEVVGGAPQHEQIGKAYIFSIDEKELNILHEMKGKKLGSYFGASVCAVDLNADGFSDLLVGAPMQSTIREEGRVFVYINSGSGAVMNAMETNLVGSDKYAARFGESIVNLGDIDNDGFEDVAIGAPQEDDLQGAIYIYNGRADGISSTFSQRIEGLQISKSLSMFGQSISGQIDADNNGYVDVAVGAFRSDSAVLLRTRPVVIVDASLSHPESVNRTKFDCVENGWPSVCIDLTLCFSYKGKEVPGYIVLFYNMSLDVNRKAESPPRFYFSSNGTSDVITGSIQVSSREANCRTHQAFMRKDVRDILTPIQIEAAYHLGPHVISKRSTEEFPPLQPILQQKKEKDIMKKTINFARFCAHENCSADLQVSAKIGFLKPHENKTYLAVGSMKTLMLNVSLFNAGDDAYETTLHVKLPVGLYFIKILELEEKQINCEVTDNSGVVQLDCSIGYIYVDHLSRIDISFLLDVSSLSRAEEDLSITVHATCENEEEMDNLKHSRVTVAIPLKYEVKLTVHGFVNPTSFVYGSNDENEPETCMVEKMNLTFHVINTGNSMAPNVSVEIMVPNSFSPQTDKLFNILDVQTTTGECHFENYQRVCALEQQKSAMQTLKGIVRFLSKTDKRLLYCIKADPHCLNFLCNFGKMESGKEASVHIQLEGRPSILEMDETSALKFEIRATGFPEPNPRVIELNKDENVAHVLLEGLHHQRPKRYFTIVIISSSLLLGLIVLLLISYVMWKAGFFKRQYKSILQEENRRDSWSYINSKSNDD
Sequence of α4β7 integrin (P26010 20-798): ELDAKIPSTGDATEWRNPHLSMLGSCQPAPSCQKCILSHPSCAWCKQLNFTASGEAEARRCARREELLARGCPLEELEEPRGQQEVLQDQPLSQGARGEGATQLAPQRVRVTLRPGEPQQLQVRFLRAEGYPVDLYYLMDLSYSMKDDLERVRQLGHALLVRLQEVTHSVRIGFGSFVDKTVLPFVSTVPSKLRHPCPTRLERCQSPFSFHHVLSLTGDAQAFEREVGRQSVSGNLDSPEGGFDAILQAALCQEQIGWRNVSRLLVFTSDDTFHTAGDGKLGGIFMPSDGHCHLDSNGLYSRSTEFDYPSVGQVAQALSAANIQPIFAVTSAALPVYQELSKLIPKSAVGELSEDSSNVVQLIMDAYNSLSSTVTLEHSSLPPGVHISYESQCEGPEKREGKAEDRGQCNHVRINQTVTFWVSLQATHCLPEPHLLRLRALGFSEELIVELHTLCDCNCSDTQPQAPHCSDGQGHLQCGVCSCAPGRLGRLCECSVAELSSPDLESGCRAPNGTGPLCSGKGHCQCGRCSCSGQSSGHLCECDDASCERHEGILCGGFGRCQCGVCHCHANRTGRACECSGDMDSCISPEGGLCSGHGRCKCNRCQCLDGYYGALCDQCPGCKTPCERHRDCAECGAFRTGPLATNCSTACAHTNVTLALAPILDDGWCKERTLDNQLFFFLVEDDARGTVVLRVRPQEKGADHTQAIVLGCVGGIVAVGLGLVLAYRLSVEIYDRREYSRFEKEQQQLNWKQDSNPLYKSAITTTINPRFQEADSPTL

SMILES	pEC50 [1]	other results
Cc1cc(C(F)(F)F)c(-c2ccc(C[C@H](NC(=O)c3c(F)cc(N4CC(C)OCC4C(F)(F)F)cc3F)C(=O)O)c3cccnc23)c(=O)n1C (stereo partly shown) [Example 171]	9.30	
Nc1ccc(C(F)(F)F)c(-c2ccc(C[C@H](NC(=O)c3c(F)cc(N4CCOC[C@@H]4C(F)(F)F)cc3F)C(=O)O)c3cccnc23)n1 [Example 194]	8.85	
CC[C@@H](Nc1cc(F)c(C(=O)N[C@@H](Cc2ccc(-c3nc(C)nc(C)c3C)c3ncccc23)C(=O)O)c(F)c1)C(F)(F)F [Example 320]	7.82	
Cn1c(=O)n(-c2ccc(C[C@H](NC(=O)c3c(F)cc(N4CCOC[C@@H]4C(F)(F)F)cc3F)C(=O)O)c3cc(F)cnc23)c(=O)c2cnccc21 [Example 430]		pEC50 [2]: 9.33
CC[C@@H](Nc1cc(C)c(C(=O)N[C@@H](Cc2ccc(-c3c(C)nc(C)n(C)c3=O)c3ncccc23)C(=O)O)c(F)c1)C(F)(F)F [Example 442]		pEC50 [2]: 9.64
CN(C)c1cccnc1-c1ccc(C[C@H](NC(=O)c2c(F)cc(N3CCOC[C@@H]3C(F)(F)F)cc2F)C(=O)O)c2cccnc12 [Example 101, (S)-2-(2,6-difluoro-4-((R)-3-(trifluoromethyl)morpholino)benzamido)-3-(8-(3-(dimethylamino)pyridin-2-yl)quinolin-5-yl)propanoic acid]		pEC50 [3]: 8.39
CC[C@@H](Nc1cc(F)c(C(=O)N[C@@H](Cc2ccc(-c3c(C(F)(F)F)c4cc(N(C)C)ccc4n(C)c3=O)c3ncccc23)C(=O)O)c(F)c1)C(F)(F)F (atropisomer, axis not shown) [Example 168]	9.30	
Cc1nc(-c2ccc(C[C@H](NC(=O)c3c(F)cc(N4CCOC[C@@H]4C(F)(F)F)cc3F)C(=O)O)c3cccnc23)ncc1F [Example 301]	8.03	
O=C(N[C@@H](Cc1ccc(NC(=O)c2c(Cl)cccc2Cl)c2ncccc12)C(=O)O)c1c(F)cccc1F [Example 239]	7.11	
CC[C@@H](Nc1cc(C)c(C(=O)N[C@@H](Cc2ccc(-n3c(=O)c4ccncc4n(C)c3=O)c3ncccc23)C(=O)O)c(F)c1)C(F)(F)F [Example 439]		pEC50 [2]: 10.31
CC[C@@H](Nc1cc(F)c(C(=O)N[C@@H](Cc2ccc(-c3c(OC)ccn(C)c3=O)c3ncccc23)C(=O)O)c(F)c1)C(F)(F)F [Example 186]	9.00	
Cc1cc(N2CCOC[C@@H]2C(F)(F)F)cc(F)c1C(=O)N[C@@H](Cc1ccc(-c2c(C(F)(F)F)cc(C)n(C)c2=O)c2ncccc12)C(=O)O [Example 141, (S)-3-(8-(1,6-dimethyl-2-oxo-4-(trifluoromethyl)-1,2-dihydropyridin-3-yl)quinolin-5-yl)-2-(2-fluoro-6-methyl-4-((R)-3-(trifluoromethyl)morpholino)benzamido)propanoic acid]		pEC50 [3]: 10.00
Cc1ccc(C(F)(F)F)c(-c2ccc(C[C@H](NC(=O)c3c(F)cc(N4CCOC[C@@H]4C(F)(F)F)cc3F)C(=O)O)c3cccnc23)n1 [Example 270]	8.36	
CC[C@@H](Nc1cc(F)c(C(=O)N[C@@H](Cc2ccc(-c3nc(C)c(C)n(C)c3=O)c3ncccc23)C(=O)O)c(F)c1)C(F)(F)F [Example 117, (S)-2-(2,6-difluoro-4-(((R)-1,1,1-trifluorobutan-2-yl)amino)benzamido)-3-(8-(4,5,6-trimethyl-3-oxo-3,4-dihydropyrazin-2-yl)quinolin-5-yl)propanoic acid]		pEC50 [3]: 9.15
N#Cc1ccc(-c2ccc(C[C@H](NC(=O)c3c(F)cc(N[C@H](c4cccc(F)c4)C(F)(F)F)cc3F)C(=O)O)c3cccnc23)c(Cl)c1 [Example 334]	7.62	
Cc1cc(N2CCOC[C@@H]2C(F)(F)F)cc(F)c1C(=O)N[C@@H](Cc1ccc(-n2c(=O)c3ncccc3n(C)c2=O)c2ncccc12)C(=O)O [Example 399, (S)-2-(2-fluoro-6-methyl-4-((R)-3-(trifluoromethyl)morpholino)benzamido)-3-(8-(1-methyl-2,4-dioxo-1,4-dihydropyrido[3,2-d]pyrimidin-3(2H)-yl)quinolin-5-yl)propanoic acid]		pEC50 [2]: 10.00
N#Cc1ccc(-c2ccc(C[C@H](NC(=O)c3c(F)cc(NC(C(F)(F)F)C(F)(F)F)cc3F)C(=O)O)c3cccnc23)c(Cl)c1 [Example 88, (S)-3-(8-(2-chloro-4-cyanophenyl)quinolin-5-yl)-2-(2,6-difluoro-4-((1,1,1,3,3,3-hexafluoropropan-2-yl)amino)benzamido)propanoic acid]		pEC50 [3]: 8.09
O=C(N[C@@H](Cc1ccc(-c2ncc3ccccc3c2Br)c2ncccc12)C(=O)O)c1c(Cl)cccc1Cl [Example 303]	8.03	
C[C@@H](Nc1cc(F)c(C(=O)N[C@@H](Cc2ccc(-c3c(Cl)cc(C#N)cc3Cl)c3ncccc23)C(=O)O)c(F)c1)C(F)(F)F [Example 288]	8.24	
COc1ccc(C(F)(F)F)c(-c2ccc(C[C@H](NC(=O)c3c(Cl)cccc3Cl)C(=O)O)c3cccnc23)n1 [Example 69, (S)-2-(2,6-dichlorobenzamido)-3-(8-(6-methoxy-3-(trifluoromethyl)pyridin-2-yl)quinolin-5-yl)propanoic acid]		pEC50 [3]: 7.54

SMILES	pEC50 [1]	other results
CC[C@@H](Nc1cc(F)c(C(=O)N[C@@H](Cc2ccc(-c3c(C(F)(F)F)cc(C)n(C)c3=O)c3ncccc23)C(=O)O)cc1C)C(F)(F)F [Example 145, (S)-3-(8-(1,6-dimethyl-2-oxo-4-(trifluoromethyl)-1,2-dihydropyridin-3-yl)quinolin-5-yl)-2-(2-fluoro-5-methyl-4-(((R)-1,1,1-trifluorobutan-2-yl)amino)benzamido)propanoic acid]		pEC50 [3]: 8.51
Cn1c(=O)c(-c2ccc(C[C@H](NC(=O)c3c(F)cc(N4CCOC[C@@H]4C(F)(F)F)cc3F)C(=O)O)c3cccnc23)nc2ccccc21 [Example 484]		pEC50 [2]: 9.84
N#Cc1ccc(-c2ccc(C[C@H](NC(=O)c3c(F)cc(C4=CCOCC4)cc3F)C(=O)O)c3cccnc23)c(Cl)c1 [Example 150]	7.36	
CC[C@@H](Nc1cc(F)c(C(=O)N[C@@H](Cc2ccc(-c3c(C(F)(F)F)cc(C)n(C)c3=O)c3nc(C(F)(F)F)ccc23)C(=O)O)c(F)c1)C(F)(F)F [Example 269]	8.36	
N#Cc1ccc(-c2ccc(C[C@H](NC(=O)c3c(Cl)cc(F)cc3Cl)C(=O)O)c3cccnc23)c(Cl)c1 [Example 22, (S)-3-(8-(2-chloro-4-cyanophenyl)quinolin-5-yl)-2-(2,6-dichloro-4-fluorobenzamido)propanoic acid]		pEC50 [3]: 7.31
Cc1cc(C(F)(F)F)c(-c2ccc(C[C@H](NC(=O)c3c(F)cc(N4C[C@H]5C[C@H]5[C@@H]4C(F)(F)F)cc3F)C(=O)O)c3cccnc23)c(=O)n1C [Example 483]		pEC50 [2]: 9.26
Cc1cc(C(F)(F)F)c(-c2ccc(C[C@H](NC(=O)c3c(F)cc(N4CCO[C@@H](C)[C@@H]4C(F)(F)F)cc3F)C(=O)O)c3cccnc23)c(=O)n1C [Example 468]		pEC50 [2]: 9.72
Cn1c(=O)n(-c2ccc(C[C@H](NC(=O)c3c(F)cc(N4CCOC[C@@H]4C(F)(F)F)cc3F)C(=O)O)c3cccnc23)c(=O)c2cc(F)c(F)cc21 [Example 422]		pEC50 [2]: 9.64
COc1cc(F)cc(C(F)(F)F)c1-c1ccc(C[C@H](NC(=O)c2c(F)cccc2F)C(=O)O)c2cccnc12 [Example 6, (2S)-2-(2,6-difluorobenzamido)-3-(8-(4-fluoro-2-methoxy-6-(trifluoromethyl)phenyl)quinolin-5-yl)propanoic acid]		pEC50 [3]: 8.35
O=C(N[C@@H](Cc1ccc(-c2ccncn2)c2ncccc12)C(=O)O)c1c(F)cc(NS(=O)(=O)c2ccc(-c3ccnc(F)c3)cc2)cc1F [Example 56, (S)-2-(2,6-difluoro-4-((4-(2-fluoropyridin-4-yl)phenyl)sulfonamido)benzamido)-3-(8-(pyrimidin-4-yl)quinolin-5-yl)propanoic acid]		pEC50 [3]: 8.04
O=C(N[C@@H](Cc1ccc(NC(=O)c2c(Cl)cncc2Cl)c2ncccc12)C(=O)O)c1c(F)cccc1F [Example 316]	7.86	
Cn1cc(-c2ccc(C[C@H](NC(=O)c3c(F)cc(N[C@H](c4ccc(Cl)cc4)C(F)(F)F)cc3F)C(=O)O)c3cccnc23)c(=O)n(C)c1=O [Example 232]	9.05	
O=C(N[C@@H](Cc1ccc(-c2cc(F)c(F)cc2OC2CCC2)c2ncccc12)C(=O)O)c1c(F)cccc1F [Example 177]	7.55	
CC[C@@H](Nc1cc(F)c(C(=O)N[C@@H](Cc2ccc(-c3c(C(F)(F)F)c4cc(N(C)C)ccc4n(C)c3=O)c3ncccc23)C(=O)O)c(F)c1)C(F)(F)F (atropisomer, axis not shown) [Example 302]	8.03	
CC[C@@H](Nc1cc(F)c(C(=O)N[C@@H](Cc2ccc(-c3ncc4ccccc4c3C(F)(F)F)c3ncccc23)C(=O)O)c(F)c1)C(F)(F)F [Example 276]	8.31	
N#CCc1ccc(-c2ccc(C[C@H](NC(=O)c3c(F)cc(NS(=O)(=O)c4ccc(-c5ccnc(F)c5)cc4)cc3F)C(=O)O)c3cccnc23)c(Cl)c1 [Example 53, (S)-3-(8-(2-chloro-4-(cyanomethyl)phenyl)quinolin-5-yl)-2-(2,6-difluoro-4-((4-(2-fluoropyridin-4-yl)phenyl)sulfonamido)benzamido)propanoic acid]		pEC50 [3]: 8.52
CC[C@@H](Nc1cc(F)c(C(=O)N[C@@H](Cc2ccc(-c3ncc(C)cc3C(F)(F)F)c3ncccc23)C(=O)O)c(F)c1)C(F)(F)F [Example 310]	7.91	
Cc1cc(C(F)(F)F)c(-c2ccc(C[C@H](NC(=O)c3c(F)cc(N4CCOC[C@@H]4C(F)(F)F)cc3F)C(=O)O)c3cc(F)cnc23)c(=O)n1C [Example 159]	9.52	
Cc1cc(N2CCOC[C@@H]2C(F)(F)F)cc(F)c1C(=O)N[C@@H](Cc1ccc(-n2c(=O)c3cc(F)ncc3n(C)c2=O)c2ncccc12)C(=O)O [Example 420]		pEC50 [2]: 9.94
Cn1c(=O)c(-c2ccc(C[C@H](NC(=O)c3c(F)cccc3F)C(=O)O)c3cccnc23)cc2ccccc21 [Example 14, (S)-2-(2,6-difluorobenzamido)-3-(1-methyl-2-oxo-1,2-dihydro-[3,8′-biquinolin]-5′-yl)propanoic acid]		pEC50 [3]: 8.43
